These results are taken from ChEMBL document CHEMBL3091433, “Structure-based design of substituted hexafluoroisopropanol-arylsulfonamides as modulators of RORc” (Bioorg Med Chem Lett, 2013).

For orientation: EC50 means the midpoint of the concentration-response curve. For orientation: IC50 means the concentration needed to halve the response being measured. A low value points to inhibition by little substance.

For assay [1], the target named is T1, Nuclear receptor ROR-gamma (Homo sapiens, UniProt P51449).
T1 sequence (P51449 whole entry): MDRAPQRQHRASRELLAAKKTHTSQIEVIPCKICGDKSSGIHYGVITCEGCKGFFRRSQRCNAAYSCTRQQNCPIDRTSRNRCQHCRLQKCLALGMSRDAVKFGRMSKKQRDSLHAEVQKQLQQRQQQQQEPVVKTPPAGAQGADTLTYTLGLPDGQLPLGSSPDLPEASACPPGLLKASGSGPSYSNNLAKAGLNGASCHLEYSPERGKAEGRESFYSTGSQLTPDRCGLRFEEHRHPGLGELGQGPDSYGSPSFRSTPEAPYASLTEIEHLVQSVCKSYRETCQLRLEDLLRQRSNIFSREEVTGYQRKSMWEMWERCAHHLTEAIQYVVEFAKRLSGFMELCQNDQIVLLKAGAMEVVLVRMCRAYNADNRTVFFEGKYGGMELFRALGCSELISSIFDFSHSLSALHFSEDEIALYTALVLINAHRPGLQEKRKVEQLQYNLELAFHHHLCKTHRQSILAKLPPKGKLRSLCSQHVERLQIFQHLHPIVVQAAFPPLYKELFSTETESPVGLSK
Description: Inverse agonist activity at GAL4-fused human RORc expressed in HEK293T cells assessed as suppression of basal transcriptional activity after 20 hrs by dual-glo luciferase reporter gene assay

Assay [2] addresses T2, Nuclear receptor ROR-beta (Homo sapiens, UniProt Q92753).
T2 sequence (Q92753 whole entry): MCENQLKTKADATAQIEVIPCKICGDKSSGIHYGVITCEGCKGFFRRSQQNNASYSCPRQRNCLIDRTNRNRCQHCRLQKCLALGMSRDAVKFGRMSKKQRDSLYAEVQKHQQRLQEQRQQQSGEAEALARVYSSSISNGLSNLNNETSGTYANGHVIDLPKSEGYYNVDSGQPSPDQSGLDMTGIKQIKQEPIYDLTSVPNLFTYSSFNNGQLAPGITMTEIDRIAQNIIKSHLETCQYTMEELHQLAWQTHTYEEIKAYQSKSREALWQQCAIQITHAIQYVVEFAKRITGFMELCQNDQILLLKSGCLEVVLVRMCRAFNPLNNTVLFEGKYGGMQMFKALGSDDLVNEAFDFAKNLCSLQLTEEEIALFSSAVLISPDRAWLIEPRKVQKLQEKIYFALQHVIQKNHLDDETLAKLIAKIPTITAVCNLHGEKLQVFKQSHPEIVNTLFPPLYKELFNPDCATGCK
In words: Inverse agonist activity at GAL4-fused human RORb expressed in HEK293T cells assessed as suppression of basal transcriptional activity after 20 hrs by dual-glo luciferase reporter gene assay. It is filed as cell-based, HEK-293T. (In general: Reporter assays use an easily measured gene product as a stand-in for the process of interest.)

Assay [3] concerns the target T3, Oxysterols receptor LXR-beta (Homo sapiens, UniProt P55055).
T3 sequence (P55055 whole entry): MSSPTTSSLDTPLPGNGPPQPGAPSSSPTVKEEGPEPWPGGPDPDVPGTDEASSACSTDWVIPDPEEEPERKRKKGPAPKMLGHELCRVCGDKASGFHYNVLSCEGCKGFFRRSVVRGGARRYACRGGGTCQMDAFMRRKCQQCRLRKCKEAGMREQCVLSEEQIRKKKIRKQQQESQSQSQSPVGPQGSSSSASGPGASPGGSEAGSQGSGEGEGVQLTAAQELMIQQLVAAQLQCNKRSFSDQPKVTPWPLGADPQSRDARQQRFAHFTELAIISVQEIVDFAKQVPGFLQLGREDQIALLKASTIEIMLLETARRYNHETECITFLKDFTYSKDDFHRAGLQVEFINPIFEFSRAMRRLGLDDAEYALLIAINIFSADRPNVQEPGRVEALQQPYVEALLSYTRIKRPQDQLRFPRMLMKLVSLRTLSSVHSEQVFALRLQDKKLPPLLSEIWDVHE
Description: Agonist activity at GAL4-fused human LXRbeta expressed in HEK293T cells assessed as activation of basal transcriptional activity after 20 hrs by dual-glo luciferase reporter gene assay

The target of assay [4] is T1, Nuclear receptor ROR-gamma. This is another data set of the same source.
Description: Displacement of [3H2]-25-hydroxycholesterol from N-terminal 6xHis-tagged human RORc ligand binding domain (241 to 486) expressed in bacterial expression system after 3 hrs by scintillation counting analysis
Assay [5] addresses T4, Nuclear receptor ROR-alpha (Homo sapiens, UniProt P35398).
T4 sequence (P35398 whole entry): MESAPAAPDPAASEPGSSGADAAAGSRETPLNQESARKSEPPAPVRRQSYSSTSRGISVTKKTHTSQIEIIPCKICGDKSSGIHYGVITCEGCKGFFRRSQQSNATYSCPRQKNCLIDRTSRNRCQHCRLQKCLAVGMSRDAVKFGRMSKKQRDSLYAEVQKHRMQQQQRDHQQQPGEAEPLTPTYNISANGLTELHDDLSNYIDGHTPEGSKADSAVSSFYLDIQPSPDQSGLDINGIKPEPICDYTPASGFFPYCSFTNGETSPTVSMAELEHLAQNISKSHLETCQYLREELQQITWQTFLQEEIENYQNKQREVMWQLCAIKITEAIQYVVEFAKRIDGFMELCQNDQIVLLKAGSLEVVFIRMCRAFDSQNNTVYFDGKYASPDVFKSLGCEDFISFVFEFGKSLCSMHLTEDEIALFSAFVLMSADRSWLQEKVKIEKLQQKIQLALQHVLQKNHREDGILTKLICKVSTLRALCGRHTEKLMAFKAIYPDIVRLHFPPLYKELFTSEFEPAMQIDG
Nature of the assay: Inverse agonist activity at GAL4-fused human RORa expressed in HEK293T cells assessed as suppression of basal transcriptional activity after 20 hrs by dual-glo luciferase reporter gene assay. It is filed as cell-based, HEK-293T.

The target of assay [6] is T1, Nuclear receptor ROR-gamma. The source holds these as a separate data set.
Description: Inverse agonist activity at N-terminal 6xHis-tagged human RORc ligand binding domain (241 to 486) expressed in bacterial expression system assessed as inhibition of SRC1 co-activator peptide recruitment after 3 hrs by TR-FRET analysis
Another assay has as its target T5, Bile acid receptor (Homo sapiens, UniProt Q96RI1).
T5 sequence (Q96RI1 whole entry): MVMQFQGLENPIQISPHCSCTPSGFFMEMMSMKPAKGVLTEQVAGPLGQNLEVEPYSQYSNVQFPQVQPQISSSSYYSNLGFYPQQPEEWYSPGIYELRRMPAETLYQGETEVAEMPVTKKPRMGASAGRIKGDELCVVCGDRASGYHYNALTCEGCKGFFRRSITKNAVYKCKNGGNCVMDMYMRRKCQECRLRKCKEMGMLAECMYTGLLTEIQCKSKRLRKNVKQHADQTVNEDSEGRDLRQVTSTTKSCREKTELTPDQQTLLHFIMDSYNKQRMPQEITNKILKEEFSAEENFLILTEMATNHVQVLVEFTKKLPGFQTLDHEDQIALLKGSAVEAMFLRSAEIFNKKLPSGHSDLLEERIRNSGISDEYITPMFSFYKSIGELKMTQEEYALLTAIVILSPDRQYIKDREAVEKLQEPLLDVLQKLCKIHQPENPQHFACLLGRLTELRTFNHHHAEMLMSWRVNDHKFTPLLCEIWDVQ
In words: Agonist activity at GAL4-fused human FXR expressed in HEK293T cells assessed as activation of basal transcriptional activity after 20 hrs by dual-glo luciferase reporter gene assay. It is filed as cell-based, HEK-293T.

Regarding `CCN(c1ccc(C(O)(C(F)(F)F)C(F)(F)F)cc1)S(=O)(=O)c1ccccc1`, the EC50 in assay [1] was 593 nM; in assay [2], 4000 nM; in assay [3] it was 246 nM; in assay [5], 5000 nM; in assay [6], 190 nM; on Bile acid receptor, 9000 nM. In assay [4], the IC50 is 245 nM.

With `N#Cc1ccc(S(=O)(=O)N(CC(F)(F)F)c2ccc(C(O)(C(F)(F)F)C(F)(F)F)cc2)cc1`, the EC50 was 192 nM in assay [1]; 5000 nM in assay [2]; 902 nM in assay [3]; 7000 nM in assay [5]; 61 nM in assay [6]; 3000 nM on Bile acid receptor. Further, 50 nM corresponded to half-maximal inhibition in assay [4] (IC50).

Regarding `O=S(=O)(c1ccc(F)cc1)N(CC(F)(F)F)c1ccc(C(O)(C(F)(F)F)C(F)(F)F)cc1`, the EC50 worked out at 89 nM in assay [1]; 6000 nM in assay [2]; 385 nM in assay [3]; 6000 nM in assay [5]; 19 nM in assay [6]; 1000 nM on Bile acid receptor. The IC50 in assay [4] was determined as 34 nM.
